Test results from patent US20210015134A1, “CONSUMABLES” (Givaudan S.A., priority 2006, published 2021).

Legend:
Assay type in all cases: in vivo
[1] = tested on: panelists; assay: Fractionated swingle extract: comparative sensory evaluation in 0% and 2% sucrose; details: from fractions at 60 ppm in 2% sucrose and LC-MS analysis
Experimental: Swingle extract, comprising 80% total mogroside content by weight, was fractionated by reversed phase (C-18) flash chromatography. Compounds were eluted using a mixture of methanol (MeOH) in water starting at 30% MeOH (264 ml) followed by a linear gradient of 30-80% MeOH (1320 ml) then finally the column was flushed with 80% MeOH (264 ml). The solvents were introduced at a flow rate of 30 ml/min throughout the separation procedure. Eluted compounds were visualized with a UV detector set at 210 nm and a Corona light scattering detector. Collected fractions were pooled according to the table below then freeze dried to powders.
The powders corresponding to various pooled fractions as given in the table below were dissolved in a concentration of 60 ppm in either 0% or 2% sucrose. The sample in 0% sucrose when determined to be sweet was in addition to the 0% sucrose control also compared to a 2% sucrose control and to the other fractions to estimate the degree of sweetness.

[2] = tested on: sweet sensitive panelists; assay: Comparative sensory evaluation of sweetness enhancers in sweetener solution or water (Example 1)
Experimental: Comparative sensory evaluation of sweetness enhancers in 2 or 7% sucrose
The test samples contained the potential sweetness enhancers in 0% sucrose (water), 2% sucrose, or 7% sucrose, and control samples of 0%, 2% and 7% sucrose without any additive. The sensory evaluations were conducted as follows. All samples were presented at ambient temperature in 15 ml aliquots to panels consisting of 5-9 sweet sensitive subjects of varying sweet sensitivity. After tasting each sample, the mouth was rinsed thoroughly with water at ambient temperature prior to tasting the next sample. The sucrose positive control (2% or 7%) was presented first and served as the sweetness reference to which all sweetness enhancer/sucrose combinations were directly compared.
One tasting sequence included tasting the sucrose control first, rinsing with water, tasting the sweetness enhancer/sucrose sample, rinsing with water followed by tasting the sucrose control again. Once the sequence was completed, each panelist chose the sample which was sweeter and evaluated the sweetness of each sample relative to one another.
In a second tasting sequence, this same procedure was followed for the water negative control versus the sweetness enhancer/water samples to determine the sweet taste due to the sweetness enhancer itself at each tested concentration.
Panelists evaluated the sweetness of the sweetness enhancer in water for each concentration. For their evaluation, panelists were allowed to compare any perceived sweetness of the sweetness enhancer to the 2% or 7% sucrose control to determine the relative intensity of sweetness. Mild sweet taste corresponds to the taste of 2% sucrose, strong sweet taste corresponds to the taste of 7% sucrose.
Alternatively to sucrose, the evaluation may be performed with another sweetener, for example, high fructose (55%) corn syrup (HFCS, containing 55% fructose and 45% glucose), erythritol, sucralose, aspartame, or acesulfame potassium (AceK).

[3] = tested on: sweet sensitive panelists; assay: Ranking test, sweetness isointensity of enhancer in sweetener solution (Example 3a)
Experimental: Ranking Tests to Determine the Sweetness Isointensity of Sweetness Enhancers to Sucrose Solutions
For comparative ranking, samples of 0.5%, 1%, 1.5%, 7%, 8%, 9%, 10% and 11% sucrose solutions were prepared.
3a) Sweetness Isointensity of Sweetness Enhancer in Sucrose Solutions
The sensory evaluation was conducted using a ranking method. Samples at ambient temperature were randomly presented in 15 ml blind aliquots (unidentifiable by panelists). Panels consisted of 10 sweet sensitive subjects and samples were presented in 4 replications over 2 sessions. After tasting each sample, the mouth was rinsed thoroughly with water at ambient temperature prior to tasting the next sample. Panelists were presented with 7%, 8%, 9%, 10%, 11% sucrose samples and a sixth sample of 7% sucrose with a sweetness enhancer in a concentration near its sweetness detection threshold. They were asked to rank the samples from low to high with respect to perceived sweet taste. R-indices were calculated for 7% sucrose with the sweetness enhancer versus 7%, 8%, 9%, 10% or 11% sucrose.

[4] = tested on: sweet sensitive panelists; assay: Ranking test, near threshold sweetness isointensity of enhancer in water (Example 3b); details: for isointensity to sucrose solution: 20 ppm in water, by interpolation
Experimental: The sensory evaluation was conducted using a ranking method. Samples at ambient temperature were randomly presented in 15 ml blind aliquots (unidentifiable by panelists). […] After tasting each sample, the mouth was rinsed thoroughly with water at ambient temperature prior to tasting the next sample. […] They were asked to rank the samples from low to high with respect to perceived sweet taste.

[5] = tested on: sweet sensitive panelists; assay: Paired comparison of sweetness enhancers in water versus sucrose (Example 4, modified)
Experimental: Paired Comparisons of Sweetness Enhancers and Mixtures Thereof in Water and 7% Sucrose
Samples of sweetness enhancers were prepared in water or 7% sucrose. One, two or three sweetness enhancers were used in a sample. All samples were presented to panelists at ambient temperature. The sensory evaluation was conducted using a paired comparison method. […] Samples were paired randomly and presented in unidentifiable pairs of two (left and right) to the panelists in random order. The sample on the left was tasted first, followed by rinsing the mouth with water, then tasting the sample on the right. Once completing the sequence, each panelist ranked the pair of samples for sweetness then evaluated samples with respect to one another with the following descriptors (in ascending order): […]

[6] = tested on: sweet sensitive subjects; assay: Sweetness quality evaluation (time of onset, localization, duration); details: for Sensory evaluation of sweetness intensity: sweetness quality
Experimental: (§1) Rebaudioside A (99%+, purified from plant extract, Sweet Aloha Farms, LLC) (1 ppm, 10 ppm, 20 ppm, 30 ppm) in 2% sucrose samples was evaluated for the qualities of the sweetness of the samples (time of onset, localization, duration). The sensory evaluations were conducted as follows. All samples were presented at ambient temperature in 15 ml aliquots and presented blindly to sweet sensitive subjects of varying sweet sensitivity. Subjects tasted the samples and were asked to evaluate the quality of sweetness. Sucrose solutions (2% and 7%) were presented as references.
Rebaudioside A (99%+, purified from plant extract, Sweet Aloha Farms, LLC) (1 ppm, 10 ppm, 20 ppm, 30 ppm) in 7% sucrose samples were evaluated for the qualities of the sweetness of the samples (time of onset, localization, duration). The sensory evaluations were conducted as follows. All samples were presented at ambient temperature in 15 ml aliquots and presented blindly to sweet sensitive subjects of varying sweet sensitivity. Subjects tasted the samples and were asked to evaluate the quality of the sweetness. Sucrose solutions (2% and 7%) were presented as references to evaluate the sweetness of the rebaudioside A samples.
as §1, with “Stevioside extract (95%+,” for “Rebaudioside A (99%+,”, “Apin Chemicals) (20” for “Sweet Aloha Farms, LLC) (1 ppm, 10 ppm, 20”, “30 ppm, 40 ppm, 50” for “30”, “ppm) was evaluated” for “ppm)”, “sucrose” for “sucrose samples was evaluated”, “sweetness qualities.” for “quality of sweetness.”
Stevioside (20 ppm, 30 ppm, 40 ppm, 50 ppm) was evaluated in 7% sucrose for the qualities of the sweetness of the samples (time of onset, localization, duration). The sensory evaluations were conducted as follows. All samples were presented at ambient temperature in 15 ml aliquots and presented blindly to sweet sensitive subjects of varying sweet sensitivity. Subjects tasted the samples and were asked to evaluate the sweetness qualities. Sucrose solutions (2% and 7%) were presented as references to evaluate the sweetness of the stevioside samples.

[7] = 20 ppm in 7% sucrose vs 7% sucrose
[8] = 20 ppm in 7% sucrose vs 8% sucrose
[9] = 20 ppm in 7% sucrose vs 9% sucrose
[10] = 20 ppm in 7% sucrose vs 10% sucrose
[11] = 20 ppm in 7% sucrose vs 11% sucrose
[12] = 20 ppm in water vs 0.5% sucrose
[13] = 20 ppm in water vs 1.5% sucrose

## C[C@H](CC[C@@H](O[C@@H]1O[C@H](CO)[C@@H](O)[C@H](O)[C@H]1O[C@@H]1O[C@H](CO)[C@@H](O)[C@H](O)[C@H]1O)C(C)(C)O)[C@H]1CC[C@@]2(C)[C@H]3CC=C4[C@@H](CC[C@H](O[C@@H]5O[C@H](CO[C@@H]6O[C@H](CO)[C@@H](O)[C@H](O)[C@H]6O)[C@@H](O)[C@H](O)[C@H]5O)C4(C)C)[C@]3(C)[C@H](O)C[C@]12C [mogroside IV]
[1]
  contribution to the observed enhancement effect of swingle extract: contributing marginally

## C[C@H](CC[C@@H](O[C@@H]1O[C@H](CO[C@@H]2O[C@H](CO)[C@@H](O)[C@H](O)[C@H]2O)[C@@H](O)[C@H](O)[C@H]1O[C@@H]1O[C@H](CO)[C@@H](O)[C@H](O)[C@H]1O)C(C)(C)O)[C@H]1CC[C@@]2(C)[C@@H]3CC=C4[C@@H](CC[C@H](O[C@@H]5O[C@H](CO[C@@H]6O[C@H](CO)[C@@H](O)[C@H](O)[C@H]6O)[C@@H](O)[C@H](O)[C@H]5O)C4(C)C)[C@]3(C)[C@H](O)C[C@]12C [mogroside V]
[1]
  contribution to the observed enhancement effect of swingle extract: mainly due to mogroside V

## C[C@H](CC[C@@H](O[C@@H]1O[C@H](CO[C@@H]2O[C@H](CO)[C@@H](O)[C@H](O)[C@H]2O)[C@@H](O)[C@H](O)[C@H]1O[C@@H]1O[C@H](CO)[C@@H](O)[C@H](O)[C@H]1O)C(C)(C)O)[C@H]1CC[C@@]2(C)[C@@H]3CC=C4[C@@H](CC[C@H](O[C@@H]5O[C@H](CO)[C@@H](O)[C@H](O)[C@H]5O)C4(C)C)[C@]3(C)[C@H](O)C[C@]12C [siamenoside I]
[1]
  contribution to the observed enhancement effect of swingle extract: contributing marginally

## C=C1C[C@@]23CC[C@H]4[C@@](C)(CCC[C@@]4(C)C(=O)O[C@@H]4O[C@H](CO)[C@@H](O)[C@H](O)[C@H]4O)[C@@H]2CC[C@]1(O[C@@H]1O[C@H](CO)[C@@H](O)[C@H](O[C@@H]2O[C@H](CO)[C@@H](O)[C@H](O)[C@H]2O)[C@H]1O[C@@H]1O[C@H](CO)[C@@H](O)[C@H](O)[C@H]1O)C3 [Rebaudioside A]
[2]; 1 ppm in 2% sucrose
  Sensory evaluation of sweetness intensity: barely perceived as sweeter than sucrose control
[2]; 1 ppm in 7% sucrose
  Sensory evaluation of sweetness intensity: very weakly sweeter than sucrose control
[2]; 1 ppm in water (Example 8A)
  Sensory evaluation of sweetness intensity: no sweetness
[2]; 1 ppm in water (Example 8B)
  Sensory evaluation of sweetness intensity: no sweetness
[2]; 10 ppm in 2% sucrose
  Sensory evaluation of sweetness intensity: notably sweeter than sucrose control
[2]; 10 ppm in 7% sucrose
  Sensory evaluation of sweetness intensity: notably sweeter than sucrose control
[2]; 10 ppm in water (Example 8A)
  Sensory evaluation of sweetness intensity: barely perceivable, late onsetting sweet
[2]; 10 ppm in water (Example 8B)
  Sensory evaluation of sweetness intensity: barely perceivable, late onsetting sweet
[2]; 20 ppm in 2% sucrose
  Sensory evaluation of sweetness intensity: much sweeter than sucrose control
[2]; 20 ppm in 7% sucrose
  Sensory evaluation of sweetness intensity: much sweeter than sucrose control
[2]; 20 ppm in water (Example 8A)
  Sensory evaluation of sweetness intensity: barely perceivable sweetness
[2]; 20 ppm in water (Example 8B)
  Sensory evaluation of sweetness intensity: barely perceivable sweetness
[2]; 30 ppm in 2% sucrose
  Sensory evaluation of sweetness intensity: substantially sweeter than sucrose control
[2]; 30 ppm in 7% sucrose
  Sensory evaluation of sweetness intensity: substantially sweeter than sucrose control
[2]; 30 ppm in water (Example 8A)
  Sensory evaluation of sweetness intensity: very weak sweetness far below the 2% sucrose control
[2]; 30 ppm in water (Example 8B)
  Sensory evaluation of sweetness intensity: very weak sweetness far below the 2% sucrose control
[3]; [7]
  R-index: 91%
  Rebaudioside A sample sweetness: sweeter
[3]; [8]
  R-index: 72%
  Rebaudioside A sample sweetness: sweeter
[3]; [9]
  R-index: 7%
  Rebaudioside A sample sweetness: less sweet
[3]; [10]
  R-index: 0%
  Rebaudioside A sample sweetness: less sweet
[3]; [11]
  R-index: 0%
  Rebaudioside A sample sweetness: less sweet
[3]; 20 ppm in 7% sucrose, by interpolation
  sweetness isointensity to sucrose: 8.5 % sucrose
[4]; [12]
  R-index: 84%
  sample sweetness (RedA, 20 ppm): sweeter
[4]; 20 ppm in water vs 1% sucrose
  R-index: 12%
  sample sweetness (RedA, 20 ppm): less sweet
[4]; [13]
  R-index: 0%
  sample sweetness (RedA, 20 ppm): less sweet
[4]; listed as rebaudioside
  isointensity to sucrose solution: about 0.75 % sucrose
[4]; listed as rebaudioside A
  isointensity to sucrose solution: 0.75 % sucrose
[5]; 1 ppm in water vs 0% sucrose
  Result of comparison: isosweet
[5]; 10 ppm in water vs 0% sucrose
  Result of comparison: weakly sweeter
[5]; 10 ppm in water vs 0.5% sucrose
  Result of comparison: notably less sweet
[5]; [12]
  Result of comparison: notably sweeter
[5]; 20 ppm in water vs 1% sucrose
  Result of comparison: less sweet
[5]; 30 ppm in water
  isointensity to sucrose solution: 1 % sucrose
[5]; 30 ppm in water vs 1% sucrose
  Result of comparison: isosweet
[5]; 30 ppm in water vs 1.5% sucrose
  Result of comparison: significantly less sweet
[6]; 1 ppm in 7% sucrose
  Sensory evaluation of sweetness intensity (strength, onset, localisation, duration): immediate onset, full mouth sweet, non-lingering
[6]; 10 ppm in 7% sucrose
  Sensory evaluation of sweetness intensity (strength, onset, localisation, duration): immediate onset, full mouth sweet, non-lingering
[6]; 20 ppm in 7% sucrose
  Sensory evaluation of sweetness intensity (strength, onset, localisation, duration): immediate onset, full mouth sweet, non-lingering
[6]; 1 ppm in 2% sucrose
  Sensory evaluation of sweetness intensity: immediate onset, full mouth sweet, non-lingering
[6]; 10 ppm in 2% sucrose
  Sensory evaluation of sweetness intensity: immediate onset full mouth sweet, non-lingering
[6]; 20 ppm in 2% sucrose
  Sensory evaluation of sweetness intensity: immediate onset, full mouth sweet, non-lingering
